Measurements published in US20240082273A1, “NEUROKININ INHIBITORS SUCH AS APREPITANT FOR TREATING NON SMALL CELL LUNG CARCINOMA OR BREAST CANCER WITHOUT MUTATIONS” (priority 2020, published 2024).

Legend:
Type in all cases: cell-based, human
[1] = system: H520; assay: MTT proliferation, H520; details: 48 hours
Text: (§1) EGFR, ALK and ROS1 are key molecular factors that may be used to determine pathological classification, prognosis, therapeutics and behaviour in patients with lung cancer. EGFR, ALK and ROS1 are biomarkers routinely analysed in the clinical practice of the management of patients with NSCLC. NSCLC with molecular profile EGFR-/ALK-/ROS1- presents a better response to treatment with the NK1 inhibitor aprepitant, compared to lung cancer with different profiles (in particular, EGFR+/ALK-/ROS1- and EGFR-/ALK+/ROS1-, in which EGFR and ALK respectively contain mutations relative to their wild type gene). Commercial lines of lung cancer were used as shown in Table 2 together with their molecular profile. The molecular profile of the cancer cell lines was determined by sequencing and can be consulted in the Cancer Cell Line Encyclopaedia database of public access available at the url: https://portals.broadinstitute.org/ccle All cells were cultured in wells under vendor-recommended conditions and exposed to different concentrations of aprepitant for 48 hours. In each case a group of wells of cells were used to which no treatment was applied and which were considered as controls. At 48 hours the number of cells was measured. Eight cell lines of human were used for the study of NK1 inhibitors (Table 3). All of them were maintained in culture in their respective culture media (Gibco,Thermo Fisher Scientific) supplemented with 10% foetal bovine serum (FBS) (Gibco, Thermo Fisher Scientific), 2 mM L-Glutamine (Gln) (Sigma-Aldrich, Merk), and […] and […] Gibco, Thermo Fisher Scientific) in a humidified incubator at 37° C. and 5% CO2. Cell culture media used are Dulbecco's Modified Eagle Medium (DMEM), and RPMI Medium 1640 (RPMI-1640). To measure cell viability, the cytotoxicity of drugs in culture was evaluated using the 3-(4,5-Dimethyl-2-thiazolyl)-2,5-diphenyl-2H-tetrazolium bromide (MTT) reduction assay. This assay assesses cell viability through the indirect measurement of the activity of reductases that convert yellow soluble MTT into purple insoluble formazan salts. As MTT can only be reduced when these enzymes are active, the reaction is used as an indicator of the cell metabolic competence and, therefore, of viability. A variable number of cells (depending on the cell line) were seeded in 96 multi-well plates and grown during 24 hours. The following day, the culture medium was aspirated and fresh culture medium with the drug dissolved was added to the wells. After 24 hours or 48 hours cell viability was measurement by adding 10 μl of a 5 mg/ml MTT solution (M5655; Sigma-Aldrich) and 100 μl of HCl 0.01M-SDS 10% solution 4 hours later. After 24 hours, the absorbance was measured at 595 nm, using a multi-well plate reader (iMark, Bio-rad). Each condition was tested 5 times, obtaining 5 values of absorbance. All sample measurements were corrected using the blank (culture medium without cells) mean absorbance value, and normalized to positive control to determinate relative cell viability for each condition at 24 and 48 hours.

[2] = system: A549; assay: MTT proliferation, A549; details: 48 hours
Text: as §1

[3] = system: breast cancer cell lines ER+/PR+/HER2− (MCF7, T47D); assay: MTT proliferation, breast cancer cell lines ER+/PR+/HER2−; details: 48 hours
Method: (§2) All cells were cultured in wells under vendor-recommended conditions and exposed to different concentrations of aprepitant for 48 hours. In each case a group of wells of cells were used to which no treatment was applied and which were considered as controls. At 48 hours the number of cells was measured. To measure cell viability, the cytotoxicity of drugs in culture was evaluated using the 3-(4,5-Dimethyl-2-thiazolyl)-2,5-diphenyl-2H-tetrazolium bromide (MTT) reduction assay. This assay assesses cell viability through the indirect measurement of the activity of reductases that convert yellow soluble MTT into purple insoluble formazan salts. As MTT can only be reduced when these enzymes are active, the reaction is used as an indicator of the cell metabolic competence and, therefore, of viability. A variable number of cells (depending on the cell line) were seeded in 96 multi-well plates and grown during 24 hours. The following day, the culture medium was aspirated and fresh culture medium with the drug dissolved was added to the wells. After 24 hours or 48 hours cell viability was measurement by adding 10 μl of a 5 mg/ml MTT solution (M5655; Sigma-Aldrich) and 100 μl of HCl 0.01M-SDS 10% solution 4 hours later. After 24 hours, the absorbance was measured at 595 nm, using a multi-well plate reader (iMark, Bio-rad). Each condition was tested 5 times, obtaining 5 values of absorbance. All sample measurements were corrected using the blank (culture medium without cells) mean absorbance value, and normalized to positive control to determinate relative cell viability for each condition at 24 and 48 hours.

[4] = system: breast cancer cell lines ER−/PR−/HER2− (MDAMB231, MDAMB435, MDAMB468); assay: MTT proliferation, breast cancer cell lines ER−/PR−/HER2−; details: for Mean proliferation: 48 hours
Method: as §2

[5] = system: H358; assay: MTT proliferation, H358; details: 48 hours
Text: as §1

Work on C[C@@H](O[C@H]1OCCN(Cc2nc(=O)[nH][nH]2)[C@H]1c1ccc(F)cc1)c1cc(C(F)(F)F)cc(C(F)(F)F)c1 [Aprepitant] yielded a Mean proliferation ([1]; aprepitant 1 μM) of 100.27, a Mean proliferation ([1]; aprepitant 3 μM) of 98.27 and a Mean proliferation ([1]; aprepitant 5 μM) of 80.08. The Mean proliferation ([1]; aprepitant 10 μM) was 66.40, the Mean proliferation ([1]; aprepitant 20 μM) was 43.07 and the Mean proliferation ([1]; aprepitant 30 μM) was 29.80. For the same molecule, the Mean proliferation ([1]; aprepitant 40 μM) was 9.59, the Mean proliferation ([1]; aprepitant 50 μM) was 5.78 and the Mean proliferation ([1]; aprepitant 60 μM) was −1.07. For the same molecule, the Mean proliferation ([2]; aprepitant 1 μM) was 96.56, the Mean proliferation ([2]; aprepitant 3 μM) was 94.80 and the Mean proliferation ([2]; aprepitant 5 μM) was 64.40. The Mean proliferation ([2]; aprepitant 10 μM) was 52.17, the Mean proliferation ([2]; aprepitant 20 μM) was 40.48 and the Mean proliferation ([2]; aprepitant 30 μM) was 35.59. For the same molecule, the Mean proliferation ([2]; aprepitant 40 μM) was 21.55, the Mean proliferation ([2]; aprepitant 50 μM) was 9.17 and the Mean proliferation ([2]; aprepitant 60 μM) was 11.36. It also gave a Mean proliferation ([3]; aprepitant 0.3 μM) of 102.47, a Mean proliferation ([3]; aprepitant 1 μM) of 99.16 and a Mean proliferation ([3]; aprepitant 3 μM) of 106.96. It also gave a Mean proliferation ([3]; aprepitant 10 μM) of 81.55, a Mean proliferation ([3]; aprepitant 20 μM) of 67.98 and a Mean proliferation ([3]; aprepitant 30 μM) of 54.13. It also gave a Mean proliferation ([3]; aprepitant 40 μM) of 35.22, a Mean proliferation ([3]; aprepitant 50 μM) of 21.79 and a Mean proliferation ([3]; aprepitant 60 μM) of 11.7. It also gave an inhibition at 20 µM ([4]; Homo sapiens, concentration of 20 μM (FIG. 5), read-out: growth inhibition) of roughly 60%, a Mean proliferation ([4]; aprepitant 0.3 μM) of 98.63 and a Mean proliferation ([4]; aprepitant 1 μM) of 97.94. It also gave a Mean proliferation ([4]; aprepitant 3 μM) of 98.98, a Mean proliferation ([4]; aprepitant 10 μM) of 74.02 and a Mean proliferation ([4]; aprepitant 20 μM) of 42.89. For the same molecule, the Mean proliferation ([4]; aprepitant 30 μM) was 24.11, the Mean proliferation ([4]; aprepitant 40 μM) was 7.53 and the Mean proliferation ([4]; aprepitant 50 μM) was 1.89. The Mean proliferation ([4]; aprepitant 60 μM) was 6.77, the “triple negative breast carcinoma proliferation in culture relative to ER+/PR+/HER2+, ER−/PR−/HER2+ and ER+/PR+/HER2−” value ([4]; dose dependent) was “reduces” and the Mean proliferation ([5]; aprepitant 1 μM) was 101.3. For the same molecule, the Mean proliferation ([5]; aprepitant 3 μM) was 89.28, the Mean proliferation ([5]; aprepitant 5 μM) was 87.69 and the Mean proliferation ([5]; aprepitant 10 μM) was 64.12. For the same molecule, the Mean proliferation ([5]; aprepitant 20 μM) was 43.44, the Mean proliferation ([5]; aprepitant 30 μM) was 32.09 and the Mean proliferation ([5]; aprepitant 40 μM) was 27.23. The Mean proliferation ([5]; aprepitant 50 μM) was 3.10 and the Mean proliferation ([5]; aprepitant 60 μM) was 2.86.
